Laboratory results reported in PMC9939733 (The Journal of Biological Chemistry, 2023).
Changes are numbered by the printed parent chain.

How the values were obtained:
Format in all cases: biochemical
R140Q IDH2 = target: T1, R140Q IDH2 (Homo sapiens, UniProt P48735, R140Q); assay: Absorbance assay, variant activity in the presence of equimolar 2OG (inhibition screen); conditions: 6.0 mM 2OG and 6.0 mM test compound, 0.03 μM R140Q IDH2, 50 μM NADPH
T1 construct: made in house; host or cells: Sf21 insect cells (cell pellets prepared at Evotec)
T1 sequence (P48735 40-452 R140Q): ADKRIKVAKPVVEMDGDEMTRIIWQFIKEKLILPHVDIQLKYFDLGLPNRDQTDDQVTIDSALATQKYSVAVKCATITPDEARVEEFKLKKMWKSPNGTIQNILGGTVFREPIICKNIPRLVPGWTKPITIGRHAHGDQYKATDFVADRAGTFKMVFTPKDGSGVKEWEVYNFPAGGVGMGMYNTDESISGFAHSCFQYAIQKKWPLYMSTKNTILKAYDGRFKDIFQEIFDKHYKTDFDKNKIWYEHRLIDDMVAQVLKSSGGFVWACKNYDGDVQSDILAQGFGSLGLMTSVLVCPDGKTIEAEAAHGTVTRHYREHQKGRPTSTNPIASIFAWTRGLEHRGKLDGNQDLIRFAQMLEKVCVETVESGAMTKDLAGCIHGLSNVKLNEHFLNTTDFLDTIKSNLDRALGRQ
Experimental: (§1) Compounds were dispensed using a CyBio SDW-CW CyBi-Well Simultaneous Pipettor and assay started using a ThermoFisher Multidrop Combi reagent dispenser.
(§2) Reactions were performed as technical quadruplicates.

R172K IDH2 = target: T2, R172K IDH2 (Homo sapiens, UniProt P48735, R172K); assay: as above; conditions: 1.0 mM 2OG and 1.0 mM test compound, 0.03 μM R172K IDH2, 50 μM NADPH
T2 construct: made in house; host or cells: Sf21 insect cells (cell pellets prepared at Evotec)
T2 sequence (P48735 40-452 R172K): T1 sequence (P48735 40-452 R140Q) with Q101R, R133K
Experimental: as §1, §2

WT IDH1 [1] = target: T3, WT IDH1 (Homo sapiens, UniProt O75874); assay: Absorbance assay, WT activity in the presence of equimolar DL-isocitrate (inhibition); conditions: […] isocitrate and […] test compound, 75 μM NADP+, 2.0 nM WT IDH1
T3 construct: made in house; host or cells: Escherichia coli BL21(DE3) pLyS
Experimental: as §1, §2

WT IDH2 [2] = target: T4, WT IDH2 (Homo sapiens, UniProt P48735); assay: as above; conditions: […] isocitrate and […] test compound, 75 μM NADP+, 2.0 nM WT IDH2
T4 construct: made in house; host or cells: Sf21 insect cells (cell pellets prepared at Evotec)
T4 sequence (P48735 40-452): T1 sequence (P48735 40-452 R140Q) with Q101R
Experimental: as §1, §2

WT IDH1 [3] = target: T3, WT IDH1; assay: Absorbance assay, substrate activity in the absence of DL-isocitrate; conditions: no DL-isocitrate; […] test compound, 75 μM NADP+, 2.0 nM WT IDH1; compared to DL-isocitrate
Experimental: as §1, §2

WT IDH2 [4] = target: T4, WT IDH2; assay: as above; conditions: no DL-isocitrate; […] test compound, 75 μM NADP+, 2.0 nM WT IDH2; compared to DL-isocitrate
Experimental: as §1, §2

R132H IDH1 = R132H IDH1 (Homo sapiens, UniProt O75874, R132H); assay: Absorbance assay, variant activity in the presence of equimolar 2OG (inhibition screen); design: made in house; host or cells: Escherichia coli BL21(DE3) pLyS; conditions: […] 2OG and […] test compound, 0.03 μM R132H IDH1, 50 μM NADPH
Experimental: as §1, §2

T3 sequence (O75874 whole entry): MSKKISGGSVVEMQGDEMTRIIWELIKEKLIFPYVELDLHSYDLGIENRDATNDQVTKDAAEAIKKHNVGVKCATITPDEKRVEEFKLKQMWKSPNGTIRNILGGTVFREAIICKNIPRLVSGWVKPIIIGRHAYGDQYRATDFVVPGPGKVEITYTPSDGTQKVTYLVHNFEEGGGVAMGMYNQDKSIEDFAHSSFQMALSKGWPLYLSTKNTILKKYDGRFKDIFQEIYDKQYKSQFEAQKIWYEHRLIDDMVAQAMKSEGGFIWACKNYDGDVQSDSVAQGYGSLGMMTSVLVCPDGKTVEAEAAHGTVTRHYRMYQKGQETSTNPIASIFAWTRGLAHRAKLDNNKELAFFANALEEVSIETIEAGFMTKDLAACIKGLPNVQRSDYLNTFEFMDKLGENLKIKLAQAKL
R132H IDH1, sequence (O75874 whole entry R132H): as the sequence (O75874 whole entry) above, with R132H counted along it

activity [%] (%-substrate conversion after 20 min incubation) (R140Q IDH2)	activity [%] (%-substrate conversion after 20 min incubation) (R172K IDH2)	activity [%] (%-substrate conversion after 20 min incubation) (WT IDH1 [1])	activity [%] (%-substrate conversion after 20 min incubation) (WT IDH2 [2])	activity [%] (%-substrate conversion after 20 min incubation) (WT IDH1 [3])	activity [%] (%-substrate conversion after 20 min incubation) (WT IDH2 [4])	activity [%] (%-substrate conversion after 20 min incubation) (R132H IDH1)	SMILES
516 ± 40%	106 ± 5%	96±3%	100±1%	< 10%	< 10%	186 ± 6%	O=C(O)CC(Cc1ccc(F)cc1)C(=O)C(=O)O (racemic) [compound 8]
119 ± 5%	93 ± 3%	95±7%	100±2%	< 10%	< 10%	93 ± 3%	CC(C)(C)CCC(CC(=O)C(=O)O)C(=O)O (racemic) [compound 17]
113 ± 4%	99 ± 3%	103±1%	101±2%	–	–	102 ± 5%	O=C(O)C(=O)c1cscc1C(=O)O [compound 31]
117 ± 9%	112 ± 13%	94±1%	98±3%	< 10%	< 10%	103 ± 2%	CCC(CC(=O)C(=O)O)C(=O)O (racemic) [compound 14]
101 ± 3%	74 ± 12%	101±3%	100±1%	< 10%	< 10%	82 ± 3%	O=C(O)C(=O)CC(CCCc1ccccc1)C(=O)O (racemic) [compound 18]
239 ± 37%	93 ± 1%	96±1%	99±1%	< 10%	< 10%	182 ± 10%	O=C(O)CC(CCCc1ccccc1)C(=O)C(=O)O (racemic) [compound 6]
116 ± 4%	97 ± 5%	95±3%	98±3%	< 10%	< 10%	101 ± 7%	CCCC(CC(=O)C(=O)O)C(=O)O (racemic) [compound 15]
95 ± 7%	93 ± 7%	94±2%	99±1%	–	–	88 ± 2%	O=C(O)C(=O)c1cccc(C(=O)O)c1 [compound 29]
97 ± 4%	104 ± 8%	93±1%	92±4%	–	–	94 ± 11%	O=C(O)C(=O)C1CC=CCC1C(=O)O (mixture of isomers) [compound 27]
–	–	104±6%	92±9%	–	–	–	O=C(O)C(=O)C1CCC(C(=O)O)CC1 (mixture of isomers) [compound 25]
146 ± 4%	98 ± 3%	95±6%	98±1%	< 10%	< 10%	142 ± 14%	CC(C)(C)CCC(CC(=O)O)C(=O)C(=O)O (racemic) [compound 5]
131 ± 9%	100 ± 5%	102±3%	100±2%	< 10%	< 10%	113 ± 4%	CCCCC(CC(=O)C(=O)O)C(=O)O (racemic) [compound 16]
125 ± 3%	111 ± 3%	93±2%	98±3%	< 10%	< 10%	200 ± 15%	COc1ccc(CC(CC(=O)O)C(=O)C(=O)O)cc1 (racemic) [compound 9]
73 ± 4%	51 ± 1%	97±3%	97±4%	< 10%	< 10%	31 ± 2%	O=C(O)C(=O)CC(Cc1ccc2ccccc2c1)C(=O)O (racemic) [compound 20]
94 ± 3%	110 ± 8%	101±2%	100±4%	–	–	103 ± 2%	O=C(O)C(=O)c1ccc(C(=O)O)cc1 [compound 30]
114 ± 4%	–	–	99±1%	–	–	116 ± 4%	O=C(O)C(=O)C1C2C=CC(C2)C1C(=O)O (racemic) [compound 28]
112 ± 4%	110 ± 10%	96±1%	96±1%	–	–	92 ± 5%	CC1(C)C(C(=O)O)C1C(=O)C(=O)O (mixture of isomers) [compound 22]
